Results on nine compounds are retold here after ChEMBL document CHEMBL3351524, “Toward fluorescent probes for G-protein-coupled receptors (GPCRs)” (J Med Chem, 2014).

Starred links: 1 amine or outer side, 2 acyl side, 3 side chain; linkers in the order of their positions; H or OH if unused. Non-standard residues stand in square brackets, D forms with d. Residues, ends and D or L forms follow the SMILES beside them. ξ: configuration not given here. *: point of attachment. X1 = O=C(O)C[C@@H](C(=O)[*:2])N(c1ccc([N+](=O)[O-])c2nonc12)[*:1]; NBD = O=[N+]([O-])c1ccc(*)c2nonc12; Nle = CCCC[C@H](N)C(=O)O; ξDab = NCCC(N)C(=O)O; Bz = O=C(c1ccccc1)*

C-X-C chemokine receptor type 4, sequence (P61073 whole entry): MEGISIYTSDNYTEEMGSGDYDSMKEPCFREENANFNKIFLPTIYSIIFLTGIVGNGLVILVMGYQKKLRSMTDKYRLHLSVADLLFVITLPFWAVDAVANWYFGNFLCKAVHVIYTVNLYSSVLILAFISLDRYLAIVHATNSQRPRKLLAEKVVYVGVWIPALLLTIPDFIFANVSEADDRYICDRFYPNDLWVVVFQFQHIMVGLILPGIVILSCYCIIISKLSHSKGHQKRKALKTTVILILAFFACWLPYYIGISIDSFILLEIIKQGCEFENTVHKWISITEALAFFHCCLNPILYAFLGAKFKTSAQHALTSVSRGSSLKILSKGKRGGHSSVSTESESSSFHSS

One experiment concerns the target C-X-C chemokine receptor type 4 (Homo sapiens, UniProt P61073). Briefly: Displacement of [125I]SDF1 from CXCR4 (unknown origin) expressed in CHO cells. The format is cell-based. (Displacement assays read how much labelled ligand stays bound in the presence of the test substance.)
As to `CC(=O)N[C@@H](CCCNC(=N)N)C(=O)N[C@@H](CCCNC(=N)N)C(=O)N[C@@H](Cc1cccc2ccccc12)C(=O)N[C@H]1CSSC[C@@H](C(=O)N[C@@H](CCCNC(=N)N)C(N)=O)NC(=O)[C@H](CCCNC(N)=O)NC(=O)[C@H](CCCNC(=N)N)NC(=O)[C@H](Cc2ccc(O)cc2)NC(=O)[C@@H]2CCCN2C(=O)[C@@H](CCCCN)NC(=O)[C@H](CCCNC(=N)N)NC(=O)[C@H](CCCNC(N)=O)NC(=O)[C@H](Cc2ccc(O)cc2)NC1=O`, the IC50 – broadly, the concentration that gives 50% inhibition – was determined as 5.2 nM.
As to `CC(=O)N[C@@H](CCCNC(=N)N)C(=O)N[C@@H](CCCNC(=N)N)C(=O)N[C@@H](Cc1cccc2ccccc12)C(=O)N[C@H]1CSSC[C@@H](C(=O)N[C@@H](CCCNC(=N)N)C(N)=O)NC(=O)[C@H](CCCNC(N)=O)NC(=O)[C@H](CCCNC(=N)N)NC(=O)[C@H](Cc2ccc(O)cc2)NC(=O)[C@@H]2CCCN2C(=O)[C@@H](CCC(=O)O)NC(=O)[C@H](CCCNC(=N)N)NC(=O)[C@H](CCCNC(N)=O)NC(=O)[C@H](Cc2ccc(O)cc2)NC1=O`, the IC50 stood at 6.7 nM.

A further experiment has as its target T1, Substance-K receptor (Homo sapiens, UniProt P21452).
T1 sequence (P21452 whole entry): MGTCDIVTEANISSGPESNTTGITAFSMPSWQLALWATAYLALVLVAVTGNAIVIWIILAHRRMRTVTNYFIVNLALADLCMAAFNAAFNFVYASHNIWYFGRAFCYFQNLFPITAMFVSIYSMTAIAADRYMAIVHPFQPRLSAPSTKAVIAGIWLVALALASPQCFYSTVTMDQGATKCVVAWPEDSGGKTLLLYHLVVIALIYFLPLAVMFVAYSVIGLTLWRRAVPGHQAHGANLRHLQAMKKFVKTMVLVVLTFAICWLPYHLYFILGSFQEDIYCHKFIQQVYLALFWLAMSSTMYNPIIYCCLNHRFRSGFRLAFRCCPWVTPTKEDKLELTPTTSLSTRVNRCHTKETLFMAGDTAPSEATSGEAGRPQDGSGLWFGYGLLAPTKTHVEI
Put plainly: Displacement of [3H]GR100679 from NK2 receptor (unknown origin) expressed in CHO/T cells. Format: cell-based.
For the compound `CCCC[C@H](NC(=O)[C@@H]1CCCN1C(=O)[C@H]1CCCN1C(=O)[C@H](Cc1ccccc1)NC(=O)[C@@H](Cc1c[nH]c2ccccc12)NC(=O)[C@H](C)NC(=O)C(CCNc1ccc([N+](=O)[O-])c2nonc12)NC(=O)c1ccccc1)C(N)=O` (some centres undefined), the affinity, expressed as Ki, was 1.35 nM.
For the compound `CCCC[C@H](NC(=O)[C@@H]1CCCN1C(=O)[C@H]1CCCN1C(=O)[C@H](Cc1ccccc1)NC(=O)[C@@H](Cc1c[nH]c2ccccc12)NC(=O)[C@H](C)NC(=O)[C@H](CCCNc1ccc([N+](=O)[O-])c2nonc12)NC(=O)c1ccccc1)C(N)=O`, the Ki – broadly, the equilibrium dissociation constant of an inhibitor or competing ligand from its target – is 1.45 nM.
In turn, `CCCC[C@H](NC(=O)[C@@H]1CCCN1C(=O)[C@H]1CCCN1C(=O)[C@H](Cc1ccccc1)NC(=O)[C@@H](Cc1c[nH]c2ccccc12)NC(=O)[C@H](C)NC(=O)[C@H](CCCCNCC(=O)Nc1ccc([N+](=O)[O-])c2nonc12)NC(=O)c1ccccc1)C(N)=O` showed a Ki of 1.58 nM.
For the compound `CSCC[C@H](NC(=O)[C@H](CC(C)C)NC(=O)CNC(=O)[C@@H](NC(=O)[C@H](Cc1ccccc1)NC(=O)[C@H](CO)NC(=O)[C@H](CC(=O)O)NC(=O)[C@@H](NC(=O)[C@H](CCCCN)NC(=O)[C@H](Cc1cnc[nH]1)Nc1ccc([N+](=O)[O-])c2nonc12)[C@@H](C)O)C(C)C)C(N)=O`, the Ki was 5.89 nM.
For the compound `CCCC[C@H](NC(=O)[C@H](CC(C)C)NC(=O)CNC(=O)C(CCNc1ccc([N+](=O)[O-])c2nonc12)NC(=O)[C@H](Cc1ccccc1)NC(=O)[C@H](CO)NC(=O)[C@H](CC(=O)O)NC(C)=O)C(N)=O` (some centres undefined) (Ac-DSF[ξDab](NBD)GL[Nle]-NH2), the affinity corresponds to a Ki of 1950 nM.
In the case of `CCCC[C@H](NC(=O)[C@@H]1CCCN1C(=O)[C@H]1CCCN1C(=O)[C@H](Cc1ccccc1)NC(=O)[C@@H](Cc1c[nH]c2ccccc12)NC(=O)[C@H](C)NC(=O)[C@H](C)NC(=O)c1ccccc1)C(N)=O` (Bz-AA[dW]F[dP]P[Nle]-NH2), the Ki is 0.155 nM.
`CCCC[C@H](NC(=O)[C@H](CC(C)C)NC(=O)CNC(=O)[C@@H](NC(=O)[C@H](Cc1ccccc1)NC(=O)[C@H](CO)NC(=O)[C@H](CC(=O)O)Nc1ccc([N+](=O)[O-])c2nonc12)C(C)C)C(N)=O` (H-[X1]SFVGL[Nle]-NH2) showed a Ki of 8.32 nM.
